Drawing on paper PMC11772769, “Selective cargo and membrane recognition by SNX17 regulates its interaction with Retriever” (EMBO Reports, 2024), this text covers Kd for one sequence.

Residue numbers refer to the chain shown, from its start. Where two headings read alike, the source gives them in different places. Where no end group is shown, it is not given here.

The target of one assay is T1, MBP-SNX17 WT (Homo sapiens, UniProt Q15036).
T1 construct: M protein marker, R Retriever complex, FL full-length; His (N, cleaved yes); made in house; host or cells: Escherichia coli BL21(DE3)
T1 sequence (Q15036 1-470): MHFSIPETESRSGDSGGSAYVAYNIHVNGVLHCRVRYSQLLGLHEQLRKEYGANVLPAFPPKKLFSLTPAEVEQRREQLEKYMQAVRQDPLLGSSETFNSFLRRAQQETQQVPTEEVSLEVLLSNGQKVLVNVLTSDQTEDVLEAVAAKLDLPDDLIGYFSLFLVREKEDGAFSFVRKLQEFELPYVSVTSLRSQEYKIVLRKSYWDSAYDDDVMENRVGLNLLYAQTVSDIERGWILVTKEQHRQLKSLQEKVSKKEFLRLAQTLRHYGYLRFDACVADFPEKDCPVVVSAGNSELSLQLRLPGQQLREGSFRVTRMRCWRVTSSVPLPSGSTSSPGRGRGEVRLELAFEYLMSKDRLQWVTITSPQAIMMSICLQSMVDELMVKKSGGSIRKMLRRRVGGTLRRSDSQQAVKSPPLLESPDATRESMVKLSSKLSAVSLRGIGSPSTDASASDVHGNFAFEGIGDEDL
Description: Fluorescence anisotropy binding of 5-FAM peptides to MBP-SNX17 wild-type. How it is done: (§1) Lyophilized peptides were resuspended in 100 mM Hepes pH 8.0 at 5 mg/ml and further diluted in the assay buffer (50 mM Hepes pH 7.5, 300 mM NaCl, and 1 mM DTT). […] The mixture was incubated at 25 °C for at least 30 min and then transferred to 96 Flat Black plates. Fluorescence anisotropy was measured at 25 °C using Spark 10M Plate Reader (Tecan) with a 485/20 excitation filter and a 535/35 emission filter. The dissociation constants were calculated in GraphPad Prism by nonlinear regression fitting of the experimental data to a one-site total binding model. The final KD measurement is the mean of at least two independent experiments.
In general terms: In fluorescence polarisation assays a small probe gives low polarisation when free and higher when bound to something large.

In the next assay the target is T2, MBP-SNX17V380D (Homo sapiens, UniProt Q15036, V380D).
T2 construct: M protein marker, R Retriever complex, FL full-length; His (N, cleaved yes); made in house; host or cells: Escherichia coli BL21(DE3)
T2 sequence (Q15036 1-470 V380D): T1 sequence (Q15036 1-470) with V380D
Briefly: Fluorescence anisotropy binding of 5-FAM peptides to MBP-SNX17 V380D. How it is done:
as §1

In a further assay the target is T3, MBP-SNX17N459A+F462A (Homo sapiens, UniProt Q15036, F462A/N459A).
T3 construct: M protein marker, R Retriever complex, FL full-length; His (N, cleaved yes); made in house; host or cells: Escherichia coli BL21(DE3)
T3 sequence (Q15036 1-470 N459A/F462A): T1 sequence (Q15036 1-470) with N459A, F462A
Briefly: Fluorescence anisotropy binding of 5-FAM peptides to MBP-SNX17 N459A+F462A. How it is done: as §1

The next assay concerns the target MBP (Escherichia coli, UniProt P0AEX9). Description: Fluorescence anisotropy, MBP negative control. In kind it is binding. On the procedure: as §1
The next assay has as its target T4, MBP-SNX17 L470G (Homo sapiens, UniProt Q15036, L470G).
T4 construct: M protein marker, R Retriever complex, FL full-length; His (N, cleaved yes); made in house; host or cells: Escherichia coli BL21(DE3)
T4 sequence (Q15036 1-470 L470G): T1 sequence (Q15036 1-470) with L470G
Briefly: Fluorescence anisotropy binding of 5-FAM cargo peptides to MBP-SNX17 L470G. How it is done:
as §1, with “The peptides used for binding assays were synthesized with an N-terminal 5-Carboxyfluorescein (FAM) and HPLC purified (≥95%) by GenScript. Lyophilized” for “Lyophilized”

Consider KLITYDNPAYEGID [L2 14-mer], for which the equilibrium dissociation constant (Kd) (usually the constant that tells how readily two partners part at equilibrium) is 1.1 ± 0.1 µM on MBP-SNX17 WT; above 32 µM on MBP-SNX17V380D (0.1 μM 5-FAM peptide, pH 7.5, 300 mM NaCl, 25 °C, one-site total binding, Bmax fixed at 240, three biological replicates (Fig. 4E)); above 32 µM at MBP-SNX17V380D (5-FAM peptide, replicate Y1, sheet KD-L2-14-mer, unit inferred, read-out: KD MBP-SNX17V380D); above 32 µM at MBP-SNX17V380D (5-FAM peptide, replicate Y2, sheet KD-L2-14-mer, unit inferred, read-out: KD MBP-SNX17V380D); above 32 µM at MBP-SNX17V380D (5-FAM peptide, replicate Y3, sheet KD-L2-14-mer, unit inferred, read-out: KD MBP-SNX17V380D); 0.6 ± 0.1 µM on MBP-SNX17N459A+F462A. Further, the Kd at MBP (0.1 μM 5-FAM peptide, pH 7.5, 300 mM NaCl, 25 °C (Fig. EV3B), read-out: KD MBP (negative control)) was above 32 µM; on MBP (5-FAM peptide, replicate Y1, sheet KD-L2-14-mer, unit inferred, read-out: KD MBP) it was above 32 µM; at MBP (5-FAM peptide, replicate Y2, sheet KD-L2-14-mer, unit inferred, read-out: KD MBP) it was above 32 µM; at MBP (5-FAM peptide, replicate Y3, sheet KD-L2-14-mer, unit inferred, read-out: KD MBP), above 32 µM; on MBP-SNX17 L470G, 1.1 ± 0.6 µM.
